In US4820834A, “Benzodiazepine analogs” (priority 1987, dated 1989):
Read-outs that look alike come from different tables or passages of the source.

Legend:
[1] = biological target: T1, CCK receptor (brain, cerebral cortex) (Cavia porcellus, UniProt H0VZC5); assay: biochemical; assay type: binding, Male Hartley guinea pigs; settings: guinea pig cerebral cortex, ^125 I-CCK-33, 25° C., 2 hours
T1 construct: Cerebral cortex was dissected and used as a receptor source; from tissue; host or cells: guinea pig cerebral cortex membranes (male Hartley)
T1 sequence (H0VZC5 1-426): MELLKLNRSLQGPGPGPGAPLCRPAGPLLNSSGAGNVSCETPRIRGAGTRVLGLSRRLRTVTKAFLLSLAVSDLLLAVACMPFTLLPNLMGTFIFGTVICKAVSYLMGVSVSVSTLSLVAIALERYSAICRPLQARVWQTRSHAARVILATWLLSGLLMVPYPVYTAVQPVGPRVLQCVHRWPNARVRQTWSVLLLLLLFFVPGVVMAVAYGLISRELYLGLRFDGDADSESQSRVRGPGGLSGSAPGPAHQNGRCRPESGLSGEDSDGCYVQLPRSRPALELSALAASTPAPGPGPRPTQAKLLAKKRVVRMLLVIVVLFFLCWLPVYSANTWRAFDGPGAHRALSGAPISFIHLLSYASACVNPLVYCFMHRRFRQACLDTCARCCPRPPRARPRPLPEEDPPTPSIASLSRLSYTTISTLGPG
Protocol: 2. CCK Recepto Binding (Brain)
CCK-33 was radiolabeled and the binding was Performed according to the description for the Pancreas method with modifications according to Saito et al., J. Neurochem.
Cerebral cortex was dissected and used as a receptor source. Each gram of fresh guinea pig brain tissue was homogenized in 10 ml of Tris/Trizma buffer with a Brinkman polytron PT-10. The homogenates were centrifuged at 42,000 g for 15 minutes. Pellets were resuspended in Tris Buffer, centrifuged as above and resuspended in 200 volumes of binding assay buffer (10 mM N-2-hydroxyethyl-piperazine-N'-2-ethane sulfonic acid (HEPES), 5 mM MgCl2, 0.25 mg/ml bacitracin, 1 mM ethylene glycol-bis-(β-aminoethylether-N,N'-tetraacetic acid) (EGTA), and 0.4% bovine serum albumin (BSA)). […] All assays were run in duplicate or triplicate. The reaction mixtures were incubated at 25° C. for 2 hours and centrifuged in a Beckman Microfuge (4 minutes) immediately after adding 1 ml of ice-cold incubation buffer. The supernatant was aspirated and discarded, pellets were counted with a Beckman gamma 5000.

[2] = biological target: T2, Gastrin receptor (gastric glands) (Cavia porcellus, UniProt H0VZC5); assay: Gastrin Receptor Binding in Guinea Pig Gastric Glands; design: species or system guinea pig (male Hartley); settings: 25° C., 30 minutes
T2 construct: The washed guinea pig gastric glands prepared as above were resuspended; from tissue; host or cells: guinea pig gastric mucosal glands (male Hartley)
T2 sequence (H0VZC5 1-426): T1 sequence (H0VZC5 1-426)

[3] = IC50 ^125 I-Gastrin Gastric Glands
[4] = read-out: IC50 ^125 I-CCK Brain
[5] = ^125 I-gastrin, read-out: IC50 ^125 I-Gastrin Gastric Glands

Row | Compound | IC50 ([1]; IC50 ^125 I-CCK Brain) [µM] | IC50 [2, 3] [µM] | IC50 [1, 4] [µM] | IC50 [2, 5] [µM]
1 | O=C(NC1N=C(c2ccccc2)c2ccccc2NC1=O)c1ccc(C(F)(F)F)cc1 (racemic) [Example 145, 1,3-Dihydro-5-Phenyl-3-(RS)-(4'-trifluoromethylbenzoylamino)-2H-1,4-benzodiazepin-2-one] | 65 | 36 | – | –
2 | CN1C(=O)C(NC(=O)c2ccc(Cl)cc2)[N+]([O-])=C(c2ccccc2F)c2ccccc21 (racemic) [Example 142, 3-(RS)-(p-Chlorobenzoylamino)-1,3-dihydro-5-(2'-fluorophenyl)-1-methyl-4-oxo-2H-1,4-benzodiazepin-2-one] | 18 | 2.4 | – | –
3 | O=C(NC1N=C(c2ccccc2)c2ccccc2NC1=O)c1ccc2ccccc2c1 (racemic) [Example 160, 1,3-Dihydro-3(RS)-(2-naphthoylamino)-5-phenyl-2H-1,4-benzodiazepin-2-one] | 12 | 14 | – | –
4 | Cn1c(C(=O)NC2N=C(c3ccccc3F)c3ccccc3NC2=O)cc2ccccc21 (racemic) [Example 127, 1,3-Dihydro-3-(RS)-(1-methylindole-2-carbonylamino)-5-(2-fluorophenyl)-2H-1,4-benzodiazepine-2-one] | 7 | 6.3 | – | –
5 | O=C(NCC1N=C(c2ccccc2F)c2ccccc2NC1=O)c1cc2ccccc2[nH]1 (racemic) [Example 68, 1,3-dihydro-5-(2-fluorophenyl)-3(RS)-(2-indolecarbonylaminomethyl)-2H-1,4-benzodiazepin-2-one] | 30 | > 100 | – | –
6 | O=C(NC1N=C(c2ccccc2)c2ccccc2NC1=O)c1cccc(Cl)c1 (racemic) [Example 140, 3-(RS)-(m-Chlorobenzoylamino)-1,3-dihydro-5-phenyl-2H-1,4-benzodiazepin-2-one] | 75 | 4.3 | – | –
7 | O=C(O)CN1C(=O)C(NC(=O)c2cc3ccccc3[nH]2)N=C(c2ccccc2F)c2ccccc21 (racemic) [Example 113, 1-Carboxymethyl-1,3-dihydro-5-(2-fluorophenyl)-3(RS)-(2-indolecarbonylamino)-2H-1,4-benzodiazepin-2-one] | 5.6 | 0.39 | – | –
8 | O=C(NC1N=C(c2ccccc2F)c2ccccc2N(C(=O)c2ccc(Cl)cc2)C1=O)c1ccc(Cl)cc1 (racemic) [Example 177, 1-(4-Chlorophenyl)carbonyl-1,3-dihydro-5-(2-fluorophenyl)-3(RS)-(4-chlorophenyl)carbonylamino-2H-1,4-benzodiazepin-2-one] | 3.7 | 0.55 | – | –
9 | O=C(NC1N=C(c2ccccc2F)c2ccccc2NC1=O)c1ccccc1Cl (racemic) [Example 174, 1,3-Dihydro-5-(2-fluorophenyl)-3(RS)-(2-chlorophenyl)carbonylamino-2H-1,4-benzodiazepin-2-one] | > 40 | 18 | – | –
10 | CN1C(=O)[C@@H](NC(=O)c2ccccc2I)N=C(c2ccccc2)c2ccccc21 [Example 283, (S)-N-(2,3-Dihydro-1-methyl-2-oxo-5-phenyl-1H-1,4-benzodiazepin-3-yl)-2-iodobenzamide] | – | – | 71 | 66
11 | O=C(NCC1CNc2ccccc2C(c2ccccc2F)=N1)c1ccsc1 (racemic) [Example 99, 1,3-Dihydro-3(RS)-[3'-(thiophene)carbonyl]amino-methyl-5-(2-fluorophenyl)-2H-1,4-benzodiazepine] | 74 | 80 | – | –
12 | CCN(CC)C(=O)C(C)N1C(=O)C(NC(=O)Nc2ccc(Cl)cc2)N=C(c2ccccc2)c2ccccc21 (single isomer, unassigned) [Example 249, 3-((((4-Chlorophenyl)amino)carbonyl)amino)-N,N,-diethyl-2,3-dihydro-alpha-methyl-2-oxo-5-phenyl-1H-1,4-benzodiazepine-1-acetamide] | – | – | 0.022 | 0.012
13 | O=C(NC1N=C(c2ccccc2)c2ccccc2NC1=O)c1cccc2ccccc12 (racemic) [Example 166, 1,3-Dihydro-3(RS)-(1-naphthoylamino)-5-phenyl-2H-1,4-benzodiazepin-2-one] | 12 | 29 | – | –
14 | Cc1ccc(C(=O)NC2N=C(c3ccccc3F)c3ccccc3NC2=O)cc1 (racemic) [Example 135, 1,3-Dihydro-5-(2-fluorophenyl)-3-(RS)-(p-methylbenzoylamino)-2H-1,4-benzodiazepin-2-one] | > 40 | 5 | – | –
15 | CCCCCc1ccc(C(=O)NC2N=C(c3ccccc3)c3ccccc3NC2=O)cc1 (racemic) [Example 165, 1,3-Dihydro-3(RS)-(4-n-pentylbenzoylamino)-5-phenyl-2H-1,4-benzodiazepin-2-one] | 8 | > 100 | – | –
16 | CN(C(=O)c1cc2ccccc2[nH]1)C1N=C(c2ccccc2)c2ccccc2NC1=O (racemic) [Example 119, 3-(RS)-[N-(2-indolecarbonyl)-N-methylamino]-1,3-dihydro-5-phenyl-2H-1,4-benzodiazepin-2-one] | 33 | > 10 | – | –
17 | O=C1Nc2ccccc2C(c2ccccc2F)=NC1CNCC1N=C(c2ccccc2F)c2ccccc2NC1=O (racemic) [Example 69, 1,3-Dihydro-3'-(RS)-[3'-(RS)-(1,3-dihydro-5-(2'-fluorophenyl)-2H-1,4-benzodiazepin-2-one)-3-yl]methylaminomethyl-5-(2'-fluorophenyl)-2H-1,4-benzodiazepin-2-one] | > 100 | 350 | – | –
18 | CN1C(=O)[C@@H](NC(=O)[C@@H](N)Cc2ccccc2)N=C(c2ccccc2)c2ccccc21 [Example 84a, 3(S)-(2(S)-amino-3-phenylpropanoylamino)-1,3-dihydro-1-methyl-5-phenyl-2H-1,4-benzodiazepin-2-one] | > 40 | – | – | > 40
19 | O=C(NC1N=C(c2ccccc2)c2ccccc2NC1=O)c1c[nH]c2ccccc12 (racemic) [Example 109, 1,3-Dihydro-3-(RS)-(3-indolecarbonylamino)-5-phenyl-2H-1,4-benzodiazepin-2-one] | 8.4 | 18 | – | –
20 | CN1C(=O)C(NC(=O)[C@H](Cc2ccccc2)NC(=O)OC(C)(C)C)N=C(c2ccccc2)c2ccccc21 (mixture of isomers) [Example 83, 3(RS)-(2(S)-tert-Butoxycarbonylamino-3-phenylpropanoyl-amino)-1,3-dihydro-1-methyl-5-phenyl-2H-1,4-benzodi-azepin-2-one] | – | – | 13 | 26
21 | CN1C(=O)C(NC(=O)c2cc3ccccc3n2C)N=C(c2ccccc2F)c2ccccc21 (racemic) [Example 81b, 1,3-Dihydro-5-(2-fluorophenyl)-1-methyl-3(RS)-[2'-(1-methylindole)carbonylamino]-2H-1,4-benzodiazepin-2-one] | 1 | 1.6 | – | –
22 | O=C(NCC1CNc2ccccc2C(c2ccccc2F)=N1)OCc1ccccc1 (racemic) [Example 98, 1,3-Dihydro-3(RS)-(benzyloxycarbonyl)aminomethyl-5-(2-fluorophenyl)-2H-1,4-benzodiazepine] | 100 | 86 | – | –
23 | O=C(O)CN1C(=O)C(NC(=O)c2cc3ccccc3[nH]2)N=C(c2ccccc2)c2ccccc21 (racemic) [Example 78, 1-Carboxymethyl-1,3-dihydro-3(RS)-(2-indolearbonyl-amino)-5-phenyl-2H-1,4-benzodiazepin-2-one] | 5.5 | 0.65 | – | –
24 | O=C(NC1N=C(c2ccccc2F)c2ccccc2NC1=O)c1ccc[nH]1 (racemic) [Example 158, 1,3-Dihydro-5-(2-fluorophenyl)-3(RS)-(pyrrole-2-carbonylamino)-2H-1,4-benzodiazepin-2-one] | 100 | 25 | – | –
25 | CN1C(=O)[C@@H](NC(=O)c2cccc(I)c2)N=C(c2ccccc2F)c2ccccc21 [Example 167, 3(S)-(+)-1,3-Dihydro-5-(2-fluorophenyl)-3-(3-iodobenzoylamino)-1-methyl-2H-1,4-benzodiazepin-2-one] | – | – | 1.7 | 0.39
